Data as given in US20040116369A1, “Interferon regulatory factor-1/human estrogen receptor fusion protein and its use for treating carcinomas” (priority 2001, published 2004).

Assays:
HepaIRF-1hER tumors = experiment: Subcutaneous tumor growth in syngeneic C57L/J mice; type: in vivo
Source text: (§1) Tumor model. The Hepa1-6 tumor model in C57L/J mice (44) was chosen because they show reliable growth in the syngeneic host. Hepa1-6 cells are a derivative of the BW7756 mouse hepatoma that arose in a C57L mouse. MHC class I and II expression is identical between C57L and C57L/J mice and Hepa1-6 HCCs are characterized by AFP expression. […] After 6 days, tumors were visible and reached a size of about 2000 mm^3 after a mean time of 18 days. This tumor size was used as endpoint in the invention, and mice were subsequently sacrificed. Tumor incidence and volume were assessed every two days using calipers. Data are presented as mean volume±SE.
(§2) Tumor protection studies. C57L/J mice were inoculated with 1×10^7 Hepa1-6 (groups 1 and 2) or HepaIRF-1hER (groups 3 and 4) cells into the right flank. Group 5 was not inoculated with any tumor. The different groups were treated as follows:
(§3) The efficacy of IRF-1 activation as a therapeutic vaccine against tumors was examined. Mice were injected subcutaneosly with HepaIRF-1hER cells in the right flank and wt Hepa1-6 cells into the left flank. The animals were either treated with 1.5 mg E2 every two days or were left untreated. Activation of IRF-1-hER abolished tumor growth of HepaIRF-1hER cells on the right flank of the mice.

Hepa1-6 (wt) tumors = experiment: Subcutaneous tumor growth in syngeneic C57L/J mice; type: in vivo; details: 1.5 mg E2 every two days i.p.
Source text: as §1, §2, §3

NIH3T3TA/IH/MR cells [1] = experiment: Proliferation (metabolic activity, WST); type: cell-based, murine; details: +E2 1 μM, seven days after treatment
Protocol: (§4) Measurement of cell growth. For determination of cell growth 2×10^3 cells/well were seeded into microtiter plates and serial dilutions (1:1) were performed allowing several independent measurement points. Cells were treated with the indicated concentration of β-estradiol. Cell growth was determined using the WST kit (Roche Diagnostics, Mannheim, Germany) following the manufacturer's instruction. Mean values of triplicates resulting in less than 10% deviation were plotted.
The effects of IRF-1 in oncogenically transformed NIH3T3 cells were examined. NIH3T3 cells conditionally expressing the oncogenes c-myc and c-Ha-ras were used. Both oncogenes were bicistrinically expressed under the control of the tetracycline regulatable promoter (Kröger, Dissertation, Universität Braunschweig, 1999). The cells were stably transfected with the IRF-1-hER fusion protein encoding construct. This cell line allows the investigation of IRF-1 effects in the non-transformed NIH3T3 cells (presence of Doxycycline) and in the transformed state of the cells (absense of Doxycycline). The antitumoral activity of IRF-1 in vitro was investigated: Influence on proliferation, soft agar growth and IFN induction with and without IRF-1hER activation by E2 treatment were measured. This was done in the non-transformed as well as in the transformed state. E2 and Doxycyline were added for five days.

NIH3T3TA/MR/IH cells = experiment: Tumor growth of transformed cells in nude mice; type: in vivo, NMRI nude mice; details: 1.5 mg E2 every two days i.p.; 10^6 cells s.c.
Protocol: Male 6-8-week old NMRI nude mice (Harlan Winkelmann, Borchen, Germany) were maintained in the SPF unit of the animal facility of German Research Center for Biotechnology. Mice were divided into two experimental groups, five mice for each group. 1×10^6 cells in 0.2 ml PBS NIH3T3TA/MR/IH cells were injected subcutaneously into the flanks of the mice. The groups were treated as follows: group 1: no treatment (n=5); group 2: 1.5 mg of E2 every two days i.p. (n=4). Tumor volumes were measured and recorded three times a week using calipers. Data are presented as mean value of tumor volume.

NIH3T3TA/IH/MR cells [2] = experiment: Anchorage independent growth in soft agar; type: cell-based, murine; details: +E2 1 μM, two weeks after treatment
Protocol: Assay for anchorage independent growth. Anchorage-independent growth capability was determined by assessing the colony-formation efficiency of cells suspended in soft agar. 1×10^3 cells were seeded in 50 μl of 0.3% overlay agar in microtiter plates coated with 50 μl 0.6% underlay agar. The induction medium was added to the top (50 μl/well). […] To determine wether IRF-1 reverses the transformed phenotype of the cells to the formation of colonies in soft agar was assayed. […] In contrast, in the absence of Doxycycline (transformed status) the cells grew well and formed soft agar clones. The ability of soft agar growth was completely abolished by the activation of IRF-1 by E2 gift (Table 3).

[3] = test system: Hepa1-6 cell clones expressing IRF-1hER (c4, c9, c22); experiment: Cell growth (WST metabolic activity); type: cell-based, murine; details: Mus musculus, Hepa1-6, 168 h, 7 days after IRF-1 activation, 1 μM β-estradiol, read-out: extent of proliferation inhibition
Protocol: as §4

NIH3T3TA/IH/MR cells [4] = experiment: IFN secretion by antiviral assay; type: cell-based, murine; details: +E2 1 μM, five days, normalized to 10^6 cells
Protocol: (§5) IFN-Test. The interferon concentrations in the cell culture supernatants were determined by an antiviral assay imploying mouse L929 cells (43). To confirm the specificity of the antiviral activity a neutralizing monoclonal antibody directed against mouse IFN-β was added to the supernatant before addition to the test cells.
IFN secretion as determined by an antiviral assay was taken as a measure of IRF-1 activity.

HepaIRF-1hER cell clones = experiment: IFN secretion measured by antiviral assay in culture supernatant; type: cell-based, murine; details: +E2 1 μM, five days, normalized to 10^6 cells
Protocol: For activation of IRF-1 in the IRF-1-hER fusion protein, E2 (SERVA, Frankfurt, Germany) was added to the cell culture medium to reach a final concentration of 1 μM.
as §5

For `C[C@]12CC[C@@H]3c4ccc(O)cc4CC[C@H]3[C@@H]1CC[C@@H]2O` [E2, β-estradiol], the “Tumor volume (mean ± SD)” value (HepaIRF-1hER tumors; HepaIH 5 × 10^6 cells s.c., 1.5 mg E2 every two days i.p.) was 22,4 ± 179 mm^3, the “mice protected against challenge” value (HepaIRF-1hER tumors; HepaIRF-1hER tumor, E2 treatment) was 75% and the “tumor size after 40 days” value (HepaIRF-1hER tumors; the two E2 treated animals that developed tumors) was 450 mm^3. For the same compound, the “Tumor volume (mean ± SD)” value (Hepa1-6 (wt) tumors; Hepa1-6 (wt) 5 × 10^6 cells s.c.) was 1630 ± 596 mm^3, the “Tumor volume (mean ± SD)” value (Hepa1-6 (wt) tumors; Hepa1-6 tumor on left flank of mice also carrying HepaIH on right flank) was 179 ± 288 mm^3 and the Proliferation (NIH3T3TA/IH/MR cells [1]; +DOX 2 μg/ml (non-transformed)) was 60%. For the same compound, the Proliferation (NIH3T3TA/IH/MR cells [1]; −Dox (transformed)) was 65%, the “mice that developed no tumors” value (NIH3T3TA/MR/IH cells) was 40% and the “Soft agar growth (number of clones)” value (NIH3T3TA/IH/MR cells [2]; +DOX 2 μg/ml (non-transformed)) was 0. The “Soft agar growth (number of clones)” value (NIH3T3TA/IH/MR cells [2]; −Dox (transformed)) was 0, the inhibition at 1 µM [3] was 40 to 80% and the IFN secretion (NIH3T3TA/IH/MR cells [4]; +DOX 2 μg/ml) was 750 IU/ml. For the same compound, the IFN secretion (NIH3T3TA/IH/MR cells [4]; −Dox) was 750 IU/ml, the IFN secretion (HepaIRF-1hER cell clones; clone c4) was 125 IU/ml and the IFN secretion (HepaIRF-1hER cell clones; clone c9) was 125 IU/ml. For the same compound, the IFN secretion (HepaIRF-1hER cell clones; clone c22) was 180 IU/ml.
